Measured values taken from patent publication US20220289685A1, “ANTIMALARIAL HEXAHYDROPYRIMIDINE ANALOGUES” (UCB BIOPHARMA SRL, priority 2019, published 2022).
Where a name gives a salt, the structure may show the parent alone.

Tested on: Plasmodium falciparum 3D7 strain
Assay: P. falciparum 3D7 asexual blood stage assay (SYBR green readout)
Assay type: cell-based
Settings: Plasmodium falciparum, 3D7, Erythrocyte, 72 h
Procedure, shortened: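 P. falciparum 3D7 in A+ erythrocytes (5% haematocrit, 0.5% parasitaemia) exposed 72 h at 37 °C under 1% O2/3% CO2 to 20-point 1.5-fold titrations, 50,000–15 nM in 0.5% DMSO. SYBR green lysis overnight, fluorescence 485/528 nm; normalized to mefloquine and DMSO, EC50 from biphasic two-site fit.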

**Q.** For C[C@@H]1C[C@H](N2C(=N)N[C@](C)(c3cccc(NC(=O)c4cncc(C5CC5)c4)c3Cl)CC2=O)CCO1 (relative stereo) [Example 104, N-(2-Chloro-3-{(4S)-2-imino-4-methyl-1-[(2R*,4R*)-2-methyl-tetrahydropyran-4-yl]-6-oxo-hexahydropyrimidin-4-yl}phenyl)-5-cyclopropylpyridine-3-carboxamide hydrochloride], which IC50 is on record?
**A.** 0.019 µM

**Q.** For Cc1cc(C(=O)Nc2cccc([C@]3(C)CC(=O)N([C@@H]4CCO[C@H](C)C4)C(=N)N3)c2Cl)c2nccn2c1 (relative stereo) [Example 28, N-(2-Chloro-3-{(4S)-2-imino-4-methyl-1-[(2R*,4R*)-2-methyl-tetrahydropyran-4-yl]-6-oxo-hexahydropyrimidin-4-yl}phenyl)-6-methylimidazo[1,2-a]pyridine-8-carboxamide trifluoroacetic acid salt], which IC50 is on record?
**A.** 0.024 µM

**Q.** With C[C@@H]1C[C@H](N2C(=N)N[C@](C)(c3cccc(NC(=O)c4ccc(C(F)(F)F)nc4)c3Cl)CC2=O)CCO1 (relative stereo) [Example 21, N-(2-Chloro-3-{(4S)-2-imino-4-methyl-1-[(2R*,4R*)-2-methyl-tetrahydropyran-4-yl]-6-oxo-hexahydropyrimidin-4-yl}phenyl)-6-(trifluoromethyl)pyridine-3-carboxamide hydrochloride] as the compound, how does the IC50 read?
**A.** 0.231 µM

**Q.** For C[C@@H]1C[C@H](N2C(=N)N[C@](C)(c3cccc(NC(=O)c4cccc(C#N)c4)c3Cl)CC2=O)CCC1(F)F (relative stereo) [Example 25, N-(2-Chloro-3-{(4S)-1-[(1R*,3R*)-4,4-difluoro-3-methylcyclohexyl]-2-imino-4-methyl-6-oxohexahydro-pyrimidin-4-yl]phenyl)-3-cyano-benzamide trifluoroacetic acid salt], which IC50 is on record?
**A.** 0.087 µM

**Q.** C[C@@H]1C[C@H](N2C(=N)N[C@](C)(c3cccc(NC(=O)c4cc(C#N)cc(C(F)(F)F)c4)c3Cl)CC2=O)CCO1 (relative stereo) [Example 95, N-(2-Chloro-3-{(4S)-2-imino-4-methyl-1-[(2R*,4R*)-2-methyl-tetrahydropyran-4-yl]-6-oxo-hexahydropyrimidin-4-yl}phenyl)-3-cyano-5-(trifluoromethyl)-benzamide hydrochloride] was tested. Which IC50 did it give?
**A.** 0.034 µM

**Q.** For C[C@@H]1C[C@H](N2C(=N)N[C@](C)(c3cccc(NC(=O)c4cccnc4C4CC4)c3Cl)CC2=O)CCO1 (relative stereo) [Example 57, N-(2-Chloro-3-{(4S)-2-imino-4-methyl-1-[(2R*,4R*)-2-methyl-tetrahydropyran-4-yl]-6-oxo-hexahydropyrimidin-4-yl]phenyl)-2-cyclopropylpyridine-3-carboxamide hydrochloride], which IC50 is on record?
**A.** 0.476 µM

**Q.** With C[C@@H]1C[C@H](N2C(=N)N[C@](C)(c3cccc(NC(=O)c4cnc5cccnc5c4)c3Cl)CC2=O)CCO1 (relative stereo) [Example 52, N-(2-Chloro-3-{(4S)-2-imino-4-methyl-1-[(2R*,4R*)-2-methyl-tetrahydropyran-4-yl]-6-oxo-hexahydropyrimidin-4-yl}phenyl)-1,5-naphthyridine-3-carboxamide trifluoroacetic acid salt] as the compound, how does the IC50 read?
**A.** 0.115 µM

**Q.** Which IC50 does the source give for C[C@@H]1C[C@H](N2C(=N)N[C@](C)(c3cccc(NC(=O)c4cnc5ccncc5c4)c3Cl)CC2=O)CCO1 (relative stereo) [Example 43, N-(2-Chloro-3-{(4S)-2-imino-4-methyl-1-[(2R*,4R*)-2-methyl-tetrahydropyran-4-yl]-6-oxo-hexahydropyrimidin-4-yl]phenyl)-1,6-naphthyridine-3-carboxamide trifluoroacetic acid salt] here?
**A.** 0.092 µM

**Q.** Cc1ccncc1C(=O)Nc1cccc([C@]2(C)CC(=O)N([C@@H]3CCO[C@H](C)C3)C(=N)N2)c1Cl (relative stereo) [Example 82, N-(2-Chloro-3-{(4S)-2-imino-4-methyl-1-[(2R*,4R*)-2-methyl-tetrahydropyran-4-yl]-6-oxo-hexahydropyrimidin-4-yl}phenyl)-4-methylpyridine-3-carboxamide trifluoroacetic acid salt] was tested. Which IC50 did it give?
**A.** 0.035 µM

**Q.** With COc1c(C#N)cccc1C(=O)Nc1cccc([C@]2(C)CC(=O)N([C@@H]3CCO[C@H](C)C3)C(=N)N2)c1Cl (relative stereo) [Example 107, N-(2-Chloro-3-{(4S)-2-imino-4-methyl-1-[(2R*,4R*)-2-methyl-tetrahydropyran-4-yl]-6-oxo-hexahydropyrimidin-4-yl}phenyl)-3-cyano-2-methoxybenzamide hydrochloride] as the compound, how does the IC50 read?
**A.** 0.027 µM

**Q.** How did the IC50 turn out when C[C@@H]1C[C@H](N2C(=N)N[C@](C)(c3cccc(NC(=O)c4ncccn4)c3Cl)CC2=O)CCO1 (relative stereo) [Example 15, N-(2-Chloro-3-{(4S)-2-imino-4-methyl-1-[(2R*,4R*)-2-methyl-tetrahydropyran-4-yl]-6-oxo-hexahydropyrimidin-4-yl}phenyl)-pyrimidine-2-carboxamide hydrochloride] was run?
**A.** 0.037 µM

**Q.** How did the IC50 turn out when C[C@@H]1C[C@H](N2C(=N)N[C@](C)(c3cccc(NC(=O)c4ccc(C(F)(F)F)cc4)c3Cl)CC2=O)CCO1 (relative stereo) [Example 37, N-(2-Chloro-3-{(4S)-2-imino-4-methyl-1-[(2R*,4R*)-2-methyl-tetrahydropyran-4-yl]-6-oxo-hexahydropyrimidin-4-yl}phenyl)-4-(trifluoromethyl)benzamide trifluoroacetic acid salt] was run?
**A.** 0.207 µM

**Q.** Which IC50 does the source give for C[C@@H]1C[C@H](N2C(=N)N[C@](C)(c3cccc(NC(=O)c4cc(C(F)(F)F)nn4C)c3Cl)CC2=O)CCO1 (relative stereo) [Example 32, N-(2-Chloro-3-{(4S)-2-imino-4-methyl-1-[(2R*,4R*)-2-methyl-tetrahydropyran-4-yl]-6-oxo-hexahydropyrimidin-4-yl}phenyl)-2-methyl-5-(trifluoromethyl)-pyrazole-3-carboxamide trifluoroacetic acid salt] here?
**A.** 0.055 µM

**Q.** For C[C@@H]1C[C@H](N2C(=N)N[C@](C)(c3cccc(NC(=O)c4ccccc4S(C)(=O)=O)c3Cl)CC2=O)CCO1 (relative stereo) [Example 81, N-(2-Chloro-3-{(4S)-2-imino-4-methyl-1-[(2R*,4R*)-2-methyl-tetrahydropyran-4-yl]-6-oxo-hexahydropyrimidin-4-yl}phenyl)-2-(methylsulfonyl)benzamide trifluoroacetic acid salt], which IC50 is on record?
**A.** 0.182 µM

**Q.** For C[C@@H]1C[C@H](N2C(=N)N[C@](C)(c3cccc(NC(=O)c4cc(C(F)(F)F)ccc4F)c3Cl)CC2=O)CCO1 (relative stereo) [Example 83, N-(2-Chloro-3-{(4S)-2-imino-4-methyl-1-[(2R*,4R*)-2-methyl-tetrahydropyran-4-yl]-6-oxo-hexahydropyrimidin-4-yl}phenyl)-2-fluoro-5-(trifluoromethyl)-benzamide trifluoroacetic acid salt], which IC50 is on record?
**A.** 0.018 µM

**Q.** For C[C@@H]1C[C@H](N2C(=N)N[C@](C)(c3cccc(NC(=O)c4cnc5ccccc5n4)c3Cl)CC2=O)CCO1 (relative stereo) [Example 31, N-(2-Chloro-3-{(4S)-2-imino-4-methyl-1-[(2R*,4R*)-2-methyl-tetrahydropyran-4-yl]-6-oxo-hexahydropyrimidin-4-yl}phenyl)-quinoxaline-2-carboxamide trifluoroacetic acid salt], which IC50 is on record?
**A.** 0.013 µM
